Like-named read-outs stand apart in the source and are kept apart here.
How the values were obtained:
Format in all cases: biochemical
JAK2 = JAK2 (Homo sapiens (Human), UniProt O60674); assay: Enzyme assay (Assay Example^a 1), JAK2; settings: ATP 100 μM
JAK1 = JAK1 (Homo sapiens (Human), UniProt P23458); assay: Enzyme assay (Assay Example^a 1), JAK1; settings: ATP 100 μM
JAK3 = JAK3 (Homo sapiens (Human), UniProt P52333); assay: Enzyme assay (Assay Example^a 1), JAK3
Tyk2 = Tyk2 (Homo sapiens (Human), UniProt P29597); assay: Enzyme assay (Assay Example^a 1), Tyk2; settings: ATP 100 μM
Tyk2, sequence (P29597 whole entry): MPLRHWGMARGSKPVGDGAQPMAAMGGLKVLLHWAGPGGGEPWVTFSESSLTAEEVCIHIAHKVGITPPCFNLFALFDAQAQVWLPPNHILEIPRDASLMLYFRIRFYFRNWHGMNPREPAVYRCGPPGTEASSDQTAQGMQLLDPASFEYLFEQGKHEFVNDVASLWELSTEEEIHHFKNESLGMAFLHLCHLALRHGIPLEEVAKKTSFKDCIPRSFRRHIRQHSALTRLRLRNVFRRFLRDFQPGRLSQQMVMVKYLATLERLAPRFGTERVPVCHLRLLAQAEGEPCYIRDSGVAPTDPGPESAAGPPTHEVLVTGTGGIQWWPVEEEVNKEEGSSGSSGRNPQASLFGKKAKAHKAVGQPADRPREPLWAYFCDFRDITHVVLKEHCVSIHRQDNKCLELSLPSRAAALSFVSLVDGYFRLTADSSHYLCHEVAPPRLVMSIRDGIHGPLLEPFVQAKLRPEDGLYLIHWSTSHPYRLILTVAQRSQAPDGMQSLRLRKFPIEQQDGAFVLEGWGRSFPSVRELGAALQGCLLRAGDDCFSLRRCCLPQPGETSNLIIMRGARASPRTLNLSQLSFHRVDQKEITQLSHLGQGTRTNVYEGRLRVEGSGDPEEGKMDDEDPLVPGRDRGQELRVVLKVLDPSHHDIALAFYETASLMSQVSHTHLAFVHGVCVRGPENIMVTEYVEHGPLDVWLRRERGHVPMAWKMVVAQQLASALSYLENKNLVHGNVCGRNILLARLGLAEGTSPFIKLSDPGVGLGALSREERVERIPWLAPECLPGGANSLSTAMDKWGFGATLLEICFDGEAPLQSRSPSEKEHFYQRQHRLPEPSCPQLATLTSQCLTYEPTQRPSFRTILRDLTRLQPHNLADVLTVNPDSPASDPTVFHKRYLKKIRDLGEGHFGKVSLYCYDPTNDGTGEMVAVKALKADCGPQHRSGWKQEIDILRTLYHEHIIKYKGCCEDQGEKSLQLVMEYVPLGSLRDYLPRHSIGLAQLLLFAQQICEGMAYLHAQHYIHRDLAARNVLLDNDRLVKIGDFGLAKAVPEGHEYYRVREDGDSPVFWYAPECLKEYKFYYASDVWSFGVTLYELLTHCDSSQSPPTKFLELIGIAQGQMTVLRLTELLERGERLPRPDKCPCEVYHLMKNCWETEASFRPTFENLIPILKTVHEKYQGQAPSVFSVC

JAK3, sequence (P52333 whole entry): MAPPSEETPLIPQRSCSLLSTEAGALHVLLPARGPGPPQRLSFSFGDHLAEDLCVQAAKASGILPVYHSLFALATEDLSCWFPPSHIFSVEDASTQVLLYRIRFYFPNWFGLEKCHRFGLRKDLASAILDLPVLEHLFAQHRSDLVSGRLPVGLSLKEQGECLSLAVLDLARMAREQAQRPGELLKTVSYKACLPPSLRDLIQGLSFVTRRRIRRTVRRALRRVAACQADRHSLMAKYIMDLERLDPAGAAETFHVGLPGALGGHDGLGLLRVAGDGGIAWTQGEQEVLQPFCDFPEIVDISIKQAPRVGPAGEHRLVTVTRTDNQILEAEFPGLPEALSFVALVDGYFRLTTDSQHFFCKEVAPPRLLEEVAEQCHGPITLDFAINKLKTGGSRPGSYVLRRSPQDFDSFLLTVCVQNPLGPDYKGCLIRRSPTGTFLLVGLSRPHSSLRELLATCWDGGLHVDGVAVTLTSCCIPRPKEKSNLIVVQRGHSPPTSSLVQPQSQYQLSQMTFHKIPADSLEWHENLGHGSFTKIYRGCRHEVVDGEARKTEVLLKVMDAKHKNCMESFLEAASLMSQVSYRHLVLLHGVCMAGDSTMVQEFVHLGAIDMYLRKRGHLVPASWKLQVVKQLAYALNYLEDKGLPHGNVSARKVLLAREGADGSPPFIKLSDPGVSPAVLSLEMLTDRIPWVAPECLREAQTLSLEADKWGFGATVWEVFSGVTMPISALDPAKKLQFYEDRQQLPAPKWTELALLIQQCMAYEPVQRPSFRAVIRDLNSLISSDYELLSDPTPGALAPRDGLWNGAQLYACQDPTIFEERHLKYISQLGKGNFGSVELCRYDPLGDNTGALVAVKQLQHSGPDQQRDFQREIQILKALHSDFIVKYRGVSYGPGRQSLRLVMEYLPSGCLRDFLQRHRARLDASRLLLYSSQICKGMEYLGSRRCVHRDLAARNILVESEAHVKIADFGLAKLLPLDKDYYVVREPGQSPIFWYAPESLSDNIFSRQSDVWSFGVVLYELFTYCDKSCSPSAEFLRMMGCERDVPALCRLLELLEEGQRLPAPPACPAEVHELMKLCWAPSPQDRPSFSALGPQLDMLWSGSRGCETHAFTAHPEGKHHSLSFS

SMILES	IC50 (JAK2)	IC50 (JAK1)	IC50 (JAK3; ATP 100 μM)	IC50 (Tyk2)	IC50 (JAK3)
c1cn(-c2ccc(CN3CCC(c4nnn5cnc6[nH]ccc6c45)CC3)cc2)cn1 [compound 221, 1-{1-[4-(1H-imidazol-1-yl)benzyl]piperidin-4-yl}-7H-pyrrolo[3,2-e][1,2,3]triazolo[1,5-c]pyrimidine]	0.09 µM	0.018 µM	> 1 µM	> 1 µM	
N#Cc1ccc(CN2CCC(c3nnn4cnc5[nH]ccc5c34)CC2)cc1F [compound 222, 4-{[4-(7H-pyrrolo[3,2-e][1,2,3]triazolo[1,5-c]pyrimidin-1-yl)piperidin-1-yl]methyl}-2-fluorobenzonitrile]	0.033 µM	0.0035 µM	0.32 µM	0.77 µM	
Fc1cc(C(F)(F)F)cc(F)c1CN1CCC(c2nnn3cnc4[nH]ccc4c23)CC1 [compound 224, 1-{1-[2,6-difluoro-4-(trifluoromethyl)benzyl]piperidin-4-yl}-7H-pyrrolo[3,2-e][1,2,3]triazolo[1,5-c]pyrimidine]	0.012 µM	0.002 µM	0.43 µM	0.95 µM	
O=C1COc2ccc(CN3CCC(c4nnn5cnc6[nH]ccc6c45)CC3)cc2N1 [compound 225, 6-{[4-(7H-pyrrolo[3,2-e][1,2,3]triazolo[1,5-c]pyrimidin-1-yl)piperidin-1-yl]methyl}-2H-benzo[b][1,4]oxazin-3(4H)-one]	0.2 µM	0.021 µM	> 1 µM	> 1 µM	
CN(CCC#N)c1ccc(CN2CCC(c3nnn4cnc5[nH]ccc5c34)CC2)cc1 [compound 226, 3-[(4-{[4-(7H-pyrrolo[3,2-e][1,2,3]triazolo[1,5-c]pyrimidin-1-yl)piperidin-1-yl]methyl}phenyl)(methyl)amino]propanenitrile]	> 1 µM	0.28 µM	> 1 µM	> 1 µM	
FC1(F)Oc2ccc(CN3CCC(c4nnn5cnc6[nH]ccc6c45)CC3)cc2O1 [compound 227, 1-{1-[(2,2-Difluorobenzo[d][1,3]dioxol-5-yl)methyl]piperidin-4-yl}-7H-pyrrolo[3,2-e][1,2,3]triazolo[1,5-c]pyrimidine]	0.021 µM	0.0025 µM	0.079 µM	0.57 µM	
Clc1ccc(CN2CCC(c3nnn4cnc5[nH]ccc5c34)CC2)o1 [compound 228, 1-{1-[(5-chlorofuran-2-yl)methyl]piperidin-4-yl}-7H-pyrrolo[3,2-e][1,2,3]triazolo[1,5-c]pyrimidine]	0.0044 µM	0.0016 µM	0.17 µM	0.1 µM	
FC1(F)Oc2cccc(CN3CCC(c4nnn5cnc6[nH]ccc6c45)CC3)c2O1 [compound 229, 1-{1-[(2,2-difluorobenzo[d][1,3]dioxol-4-yl)methyl]piperidin-4-yl}-7H-pyrrolo[3,2-e][1,2,3]triazolo[1,5-c]pyrimidine]	0.087 µM	0.039 µM	> 1 µM	> 1 µM	
N#C/C(=C\N1CCC(c2nnn3cnc4[nH]ccc4c23)CC1)c1ccccc1 [compound 230, (Z)-3-[4-(7H-pyrrolo[3,2-e][1,2,3]triazolo[1,5-c]pyrimidin-1-yl)piperidin-1-yl]-2-phenylacrylonitrile]	0.13 µM	0.035 µM	> 1 µM	> 1 µM	
Clc1ccc(CN2CCC(c3nnn4cnc5[nH]ccc5c34)CC2)c(Cl)n1 [compound 231, 1-{1-[(2,6-dichloropyridin-3-yl)methyl]piperidin-4-yl}-7H-pyrrolo[3,2-e][1,2,3]triazolo[1,5-c]pyrimidine]	0.023 µM	0.0043 µM	0.23 µM	0.61 µM	
Brc1cc(CN2CCC(c3nnn4cnc5[nH]ccc5c34)CC2)sc1Br [compound 233, 1-{1-[(4,5-dibromothiophen-2-yl)methyl]piperidin-4-yl}-7H-pyrrolo[3,2-e][1,2,3]triazolo[1,5-c]pyrimidine]	0.071 µM	0.021 µM		> 1 µM	> 1 µM
c1cc2c(ncn3nnc(C4CCN(Cc5cnc(N6CCOCC6)s5)CC4)c23)[nH]1 [compound 234, 4-(5-{[4-(7H-pyrrolo[3,2-e][1,2,3]triazolo[1,5-c]pyrimidin-1-yl)piperidin-1-yl]methyl}thiazol-2-yl)morpholine]	0.88 µM	0.36 µM	> 1 µM	> 1 µM	
Brc1csc(CN2CCC(c3nnn4cnc5[nH]ccc5c34)CC2)c1 [compound 237, 1-{1-[(4-bromothiophen-2-yl)methyl]piperidin-4-yl}-7H-pyrrolo[3,2-e][1,2,3]triazolo[1,5-c]pyrimidine]	0.01 µM	0.0015 µM	0.41 µM	> 1 µM	
Brc1ccc(CN2CCC(c3nnn4cnc5[nH]ccc5c34)CC2)s1 [compound 238, 1-{1-[(5-bromothiophen-2-yl)methyl]piperidin-4-yl}-7H-pyrrolo[3,2-e][1,2,3]triazolo[1,5-c]pyrimidine]	0.0046 µM	0.00079 µM	0.055 µM	0.11 µM	
c1cc(CN2CCC(c3nnn4cnc5[nH]ccc5c34)CC2)ccn1 [compound 239, 1-[1-(pyridin-4-ylmethyl)piperidin-4-yl]-7H-pyrrolo[3,2-e][1,2,3]triazolo[1,5-c]pyrimidine]	0.035 µM	0.0081 µM	0.61 µM	0.65 µM	
c1cc2c(ncn3nnc(C4CCN(Cc5cscn5)CC4)c23)[nH]1 [compound 240, 4-{[4-(7H-pyrrolo[3,2-e][1,2,3]triazolo[1,5-c]pyrimidin-1-yl)piperidin-1-yl]methyl}thiazole]	0.11 µM	0.039 µM	0.6 µM	> 1 µM	
N#Cc1ccc(CN2CCC(c3nnn4cnc5[nH]ccc5c34)CC2)cc1C#N [compound 242, 4-{[4-(7H-pyrrolo[3,2-e][1,2,3]triazolo[1,5-c]pyrimidin-1-yl)piperidin-1-yl]methyl}phthalonitrile]	0.052 µM	0.0065 µM	0.96 µM	> 1 µM	
N#Cc1cc(CN2CCC(c3nnn4cnc5[nH]ccc5c34)CC2)ccc1C(F)(F)F [compound 243, 5-{[4-(7H-pyrrolo[3,2-e][1,2,3]triazolo[1,5-c]pyrimidin-1-yl)piperidin-1-yl]methyl}-2-(trifluoromethyl)benzonitrile]	0.29 µM	0.044 µM	> 1 µM	> 1 µM	
N#Cc1ccc(CN2CCC(c3nnn4cnc5[nH]ccc5c34)CC2)cc1C(F)(F)F [compound 244, 4-{[4-(7H-pyrrolo[3,2-e][1,2,3]triazolo[1,5-c]pyrimidin-1-yl)piperidin-1-yl]methyl}-2-(trifluoromethyl)benzonitrile]	0.038 µM	0.0054 µM	0.44 µM	0.79 µM	
N#CCN1CCC(c2nnn3cnc4[nH]ccc4c23)CC1 [compound 246, 2-[4-(7H-pyrrolo[3,2-e][1,2,3]triazolo[1,5-c]pyrimidin-1-yl)piperidin-1-yl]acetonitrile]	0.019 µM	0.0053 µM	0.28 µM	0.14 µM	
N#Cc1ccc(NC[C@H]2CC[C@H](c3nnn4cnc5[nH]ccc5c34)CC2)c2ccccc12 [compound 248, 4-({[trans-4-(7H-pyrrolo[3,2-e][1,2,3]triazolo[1,5-c]pyrimidin-1-yl)cyclohexyl]methyl}amino)-1-naphthonitrile]	0.14 µM	0.041 µM	> 1 µM	> 1 µM	
Fc1ccc(NC[C@H]2CC[C@H](c3nnn4cnc5[nH]ccc5c34)CC2)cc1F [compound 249, N-{[trans-4-(7H-pyrrolo[3,2-e][1,2,3]triazolo[1,5-c]pyrimidin-1-yl)cyclohexyl]methyl}-3,4-difluoroaniline]	0.056 µM	0.017 µM	0.49 µM	0.86 µM	
Fc1cc(NC[C@H]2CC[C@H](c3nnn4cnc5[nH]ccc5c34)CC2)cc(F)c1F [compound 250, N-{[trans-4-(7H-pyrrolo[3,2-e][1,2,3]triazolo[1,5-c]pyrimidin-1-yl)cyclohexyl]methyl}-3,4,5-trifluoroaniline]	0.18 µM	0.031 µM	> 1 µM	> 1 µM	
Fc1ccc(NC[C@H]2CC[C@H](c3nnn4cnc5[nH]ccc5c34)CC2)cc1C(F)(F)F [compound 251, N-{[trans-4-(7H-pyrrolo[3,2-e][1,2,3]triazolo[1,5-c]pyrimidin-1-yl)cyclohexyl]methyl}-4-fluoro-3-(trifluoromethyl)aniline]	0.2 µM	0.031 µM	> 1 µM	> 1 µM	
N#Cc1cc(NC[C@H]2CC[C@H](c3nnn4cnc5[nH]ccc5c34)CC2)ccc1F [compound 252, 5-({[trans-4-(7H-pyrrolo[3,2-e][1,2,3]triazolo[1,5-c]pyrimidin-1-yl)cyclohexyl]methyl}amino)-2-fluorobenzonitrile]	0.06 µM	0.017 µM	> 1 µM	> 1 µM	
O=C1SCCC1NC[C@H]1CC[C@H](c2nnn3cnc4[nH]ccc4c23)CC1 (stereo partly drawn) [compound 253, 3-({[trans-4-(7H-pyrrolo[3,2-e][1,2,3]triazolo[1,5-c]pyrimidin-1-yl)cyclohexyl]methyl}amino)dihydrothiophen-2(3H)-one]	0.0066 µM	0.0011 µM	0.14 µM	0.044 µM	
c1cc2c(ncn3nnc([C@H]4CC[C@H](CN5CCSC5)CC4)c23)[nH]1 [compound 254, 3-{[trans-4-(7H-pyrrolo[3,2-e][1,2,3]triazolo[1,5-c]pyrimidin-1-yl)cyclohexyl]methyl}thiazolidine]	0.024 µM	0.0071 µM	0.53 µM	0.16 µM	
FC(F)CNC[C@H]1CC[C@H](c2nnn3cnc4[nH]ccc4c23)CC1 [compound 255, N-{[trans-4-(7H-pyrrolo[3,2-e][1,2,3]triazolo[1,5-c]pyrimidin-1-yl)cyclohexyl]methyl}-2,2-difluoroethanamine]	0.015 µM	0.0025 µM	0.24 µM	0.14 µM	
